Results taken from ChEMBL document CHEMBL1201862, “PubChem BioAssay data set” (2004).
The source made the active and inactive calls.

Key:
[1] = target: Dual specificity tyrosine-phosphorylation-regulated kinase 1A (Rattus norvegicus, UniProt Q63470); assay type: biochemical, Homo sapiens
HEK293 [2] = assay: membrane integrity loss in HEK cells – cell-based, fluorescence, cytotoxicity control for IDE activator project, dose response (AID 588440); assay type: functional; details: Homo sapiens;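 also: cytotoxicity by LDH release measuring loss of membrane integrity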
HEK293 [3] = assay: optical interference in Abeta FP readout, dose response, artefact control for IDE activator project, biochemical, fluorescence polarization (AID 588442); assay type: functional, cell-based; details: Homo sapiens
Insulin-degrading enzyme [4] = target: T1, Insulin-degrading enzyme (Homo sapiens, UniProt P14735); assay: cellular IDE activation of Abeta substrate cleavage – fluorescence polarization, HEK cells, dose response (AID 588439); assay type: functional, cell-based
T1 sequence (P14735 whole entry): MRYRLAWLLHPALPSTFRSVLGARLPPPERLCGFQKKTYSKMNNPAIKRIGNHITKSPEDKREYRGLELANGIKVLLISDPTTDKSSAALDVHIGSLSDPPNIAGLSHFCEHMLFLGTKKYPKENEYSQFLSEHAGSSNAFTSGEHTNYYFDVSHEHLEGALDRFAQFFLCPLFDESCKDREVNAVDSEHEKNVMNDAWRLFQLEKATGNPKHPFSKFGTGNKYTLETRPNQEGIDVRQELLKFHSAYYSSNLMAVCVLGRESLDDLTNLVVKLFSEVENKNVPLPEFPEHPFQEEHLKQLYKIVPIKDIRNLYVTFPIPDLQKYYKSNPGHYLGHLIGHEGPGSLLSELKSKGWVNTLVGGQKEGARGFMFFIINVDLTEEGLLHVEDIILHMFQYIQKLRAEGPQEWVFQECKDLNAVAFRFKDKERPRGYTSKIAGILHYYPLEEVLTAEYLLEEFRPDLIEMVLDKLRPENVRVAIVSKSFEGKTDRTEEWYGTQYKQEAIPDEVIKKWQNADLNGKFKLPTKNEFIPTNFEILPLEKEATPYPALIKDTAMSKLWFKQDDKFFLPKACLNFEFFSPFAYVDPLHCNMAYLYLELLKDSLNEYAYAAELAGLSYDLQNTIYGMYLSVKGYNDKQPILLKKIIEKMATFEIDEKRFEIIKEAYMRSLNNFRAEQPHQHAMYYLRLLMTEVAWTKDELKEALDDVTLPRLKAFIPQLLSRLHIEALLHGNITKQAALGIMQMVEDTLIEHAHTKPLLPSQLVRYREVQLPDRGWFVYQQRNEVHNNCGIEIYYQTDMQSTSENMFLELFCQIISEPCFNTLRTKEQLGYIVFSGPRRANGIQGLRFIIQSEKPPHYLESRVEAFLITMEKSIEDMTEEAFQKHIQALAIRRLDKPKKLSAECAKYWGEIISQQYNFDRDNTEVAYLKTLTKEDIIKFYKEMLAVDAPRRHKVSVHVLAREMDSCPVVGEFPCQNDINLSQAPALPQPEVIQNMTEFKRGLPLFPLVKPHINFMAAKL

Insulin-degrading enzyme [5] = target: T1, Insulin-degrading enzyme; assay: recombinant IDE activation, cell-free – biochemical, fluorescence polarization, counter-screen for IDE activator project, dose response (AID 588681)
[6] = target: Diacylglycerol lipase-beta (Mus musculus, UniProt Q91WC9); assay: Late stage assay provider results from the probe development effort to identify inhibitors of diacylglycerol lipase, beta (DAGLb): fluorescence-based dose-response biochemical gel-based competitive Activity-Based Protein Profiling (ABPP) inhibition of DAGLb in vitro.; assay type: functional
Sequence of Diacylglycerol lipase-beta (Q91WC9 whole entry): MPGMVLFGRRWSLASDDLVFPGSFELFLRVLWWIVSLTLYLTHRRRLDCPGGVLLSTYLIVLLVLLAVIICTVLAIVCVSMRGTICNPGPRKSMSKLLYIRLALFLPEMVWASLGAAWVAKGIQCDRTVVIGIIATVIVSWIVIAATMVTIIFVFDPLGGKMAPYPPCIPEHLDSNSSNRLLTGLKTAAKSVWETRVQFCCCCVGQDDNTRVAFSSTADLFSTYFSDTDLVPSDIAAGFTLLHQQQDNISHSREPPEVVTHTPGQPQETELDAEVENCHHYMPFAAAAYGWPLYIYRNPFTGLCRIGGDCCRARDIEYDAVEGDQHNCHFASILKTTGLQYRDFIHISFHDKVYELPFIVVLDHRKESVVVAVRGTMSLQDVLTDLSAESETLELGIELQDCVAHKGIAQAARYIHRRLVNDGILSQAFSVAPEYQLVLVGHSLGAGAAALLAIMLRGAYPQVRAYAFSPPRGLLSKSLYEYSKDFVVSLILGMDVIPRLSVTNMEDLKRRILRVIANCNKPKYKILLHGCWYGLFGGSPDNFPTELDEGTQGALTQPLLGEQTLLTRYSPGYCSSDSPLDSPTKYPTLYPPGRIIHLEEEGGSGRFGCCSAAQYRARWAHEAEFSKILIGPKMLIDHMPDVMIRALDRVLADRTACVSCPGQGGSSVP

[7] = target: T2, Probable nicotinate-nucleotide adenylyltransferase (Staphylococcus aureus (strain N315), UniProt P65502); assay type: functional, Staphylococcus aureus subsp. aureus N315; details: read-out: IC50_Mean;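 as to IC50 Mean: confirmatory dose-response retesting of NadD inhibitor hits first found in an ultra-high-throughput screen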
T2 sequence (P65502 whole entry): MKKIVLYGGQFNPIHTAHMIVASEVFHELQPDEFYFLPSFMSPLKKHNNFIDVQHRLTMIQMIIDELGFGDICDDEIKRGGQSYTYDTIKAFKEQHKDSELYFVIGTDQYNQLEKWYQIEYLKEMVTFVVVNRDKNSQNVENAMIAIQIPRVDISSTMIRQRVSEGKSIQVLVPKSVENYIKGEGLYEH

[8] = target: T2, Probable nicotinate-nucleotide adenylyltransferase; assay type: functional, Staphylococcus aureus subsp. aureus N315
[9] = NIH-3T3 fibroblast cytotoxicity, dose response, cytotoxicity control, cell-based, fluorescence, Alamar Blue, secondary assay (AID 2327); assay type: functional;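 also: NIH-3T3 mouse fibroblasts cultured with fluconazole at 8 µg/mL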
[10] = fluconazole-exposed Candida albicans growth modulators – fluorescence, retest, confirmation (AID 2467); assay type: functional, cell-based
[11] = target: Serine/threonine-protein phosphatase (Candida dubliniensis (strain CD36 / CBS 7987 / NCPF 3949 / NRRLY-17841) (Yeast), UniProt B9W6M3); assay: blockers of CaCl2-induced CDRE-lacZ signaling – S. cerevisiae, luminescence, secondary, dose response (AID 2388); assay type: functional, cell-based;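 also: yeast reporter cells carrying a calcineurin-responsive lacZ construct stimulated with calcium chloride; luminescent beta-galactosidase reporter signal in whole cells rather than isolated phosphatase activity; potency for inhibition where a drop in reporter signal means calcineurin blockade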
Sequence of Serine/threonine-protein phosphatase (B9W6M3 whole entry): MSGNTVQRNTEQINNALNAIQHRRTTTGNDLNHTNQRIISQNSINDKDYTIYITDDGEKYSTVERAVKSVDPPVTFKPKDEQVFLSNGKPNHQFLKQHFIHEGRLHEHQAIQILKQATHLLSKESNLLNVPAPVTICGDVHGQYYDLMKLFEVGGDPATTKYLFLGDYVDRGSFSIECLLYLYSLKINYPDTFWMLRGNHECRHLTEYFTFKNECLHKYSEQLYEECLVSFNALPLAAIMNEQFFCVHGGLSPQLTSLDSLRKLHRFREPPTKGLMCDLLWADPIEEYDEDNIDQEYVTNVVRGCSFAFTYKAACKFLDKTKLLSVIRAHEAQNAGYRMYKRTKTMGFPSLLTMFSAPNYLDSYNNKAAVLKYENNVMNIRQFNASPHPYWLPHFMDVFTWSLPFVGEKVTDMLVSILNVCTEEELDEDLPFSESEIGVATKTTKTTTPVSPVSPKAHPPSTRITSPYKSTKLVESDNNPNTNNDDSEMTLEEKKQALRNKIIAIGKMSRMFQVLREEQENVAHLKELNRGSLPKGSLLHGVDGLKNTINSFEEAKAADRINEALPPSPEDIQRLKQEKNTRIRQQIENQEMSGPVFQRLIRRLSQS

[12] = target: ATP-dependent molecular chaperone HSP82 (Candida albicans (strain WO-1) (Yeast), UniProt C4YTQ8); assay: steroid-induced GRE reporter decrease in yeast – S. cerevisiae, luminescence, Hsp90 inhibitor project, dose response (AID 2400); assay type: functional, cell-based;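 also: beta-galactosidase luminescence from glucocorticoid response element reporter as proxy for Hsp90 function; inhibitor potency where signal loss means Hsp90 inhibition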
Sequence of ATP-dependent molecular chaperone HSP82 (C4YTQ8 whole entry): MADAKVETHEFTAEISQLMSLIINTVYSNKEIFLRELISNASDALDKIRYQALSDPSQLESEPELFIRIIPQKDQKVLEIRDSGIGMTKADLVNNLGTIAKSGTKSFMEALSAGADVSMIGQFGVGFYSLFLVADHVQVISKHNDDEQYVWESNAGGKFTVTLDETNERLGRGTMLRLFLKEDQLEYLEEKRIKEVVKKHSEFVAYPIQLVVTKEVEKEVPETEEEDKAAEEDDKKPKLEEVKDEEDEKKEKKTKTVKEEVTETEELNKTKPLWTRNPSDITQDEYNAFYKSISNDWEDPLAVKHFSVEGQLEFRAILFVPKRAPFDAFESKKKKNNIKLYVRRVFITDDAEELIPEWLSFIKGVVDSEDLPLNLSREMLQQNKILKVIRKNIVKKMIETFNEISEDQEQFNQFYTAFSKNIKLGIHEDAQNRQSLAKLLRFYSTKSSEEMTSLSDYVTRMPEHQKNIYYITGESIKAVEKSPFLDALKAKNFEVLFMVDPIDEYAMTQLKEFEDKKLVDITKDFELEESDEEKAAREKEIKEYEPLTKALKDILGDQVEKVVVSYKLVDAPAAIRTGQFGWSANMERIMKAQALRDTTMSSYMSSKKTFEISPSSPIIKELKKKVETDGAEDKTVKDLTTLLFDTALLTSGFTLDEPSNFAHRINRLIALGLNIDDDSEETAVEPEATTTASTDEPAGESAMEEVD

[13] = target: Voltage-gated inwardly rectifying potassium channel KCNH2 (Homo sapiens, UniProt Q12809); details: Potency;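 also: confirmatory quantitative high-throughput screen measuring inhibition of hERG channel activity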
Sequence of Voltage-gated inwardly rectifying potassium channel KCNH2 (Q12809 whole entry): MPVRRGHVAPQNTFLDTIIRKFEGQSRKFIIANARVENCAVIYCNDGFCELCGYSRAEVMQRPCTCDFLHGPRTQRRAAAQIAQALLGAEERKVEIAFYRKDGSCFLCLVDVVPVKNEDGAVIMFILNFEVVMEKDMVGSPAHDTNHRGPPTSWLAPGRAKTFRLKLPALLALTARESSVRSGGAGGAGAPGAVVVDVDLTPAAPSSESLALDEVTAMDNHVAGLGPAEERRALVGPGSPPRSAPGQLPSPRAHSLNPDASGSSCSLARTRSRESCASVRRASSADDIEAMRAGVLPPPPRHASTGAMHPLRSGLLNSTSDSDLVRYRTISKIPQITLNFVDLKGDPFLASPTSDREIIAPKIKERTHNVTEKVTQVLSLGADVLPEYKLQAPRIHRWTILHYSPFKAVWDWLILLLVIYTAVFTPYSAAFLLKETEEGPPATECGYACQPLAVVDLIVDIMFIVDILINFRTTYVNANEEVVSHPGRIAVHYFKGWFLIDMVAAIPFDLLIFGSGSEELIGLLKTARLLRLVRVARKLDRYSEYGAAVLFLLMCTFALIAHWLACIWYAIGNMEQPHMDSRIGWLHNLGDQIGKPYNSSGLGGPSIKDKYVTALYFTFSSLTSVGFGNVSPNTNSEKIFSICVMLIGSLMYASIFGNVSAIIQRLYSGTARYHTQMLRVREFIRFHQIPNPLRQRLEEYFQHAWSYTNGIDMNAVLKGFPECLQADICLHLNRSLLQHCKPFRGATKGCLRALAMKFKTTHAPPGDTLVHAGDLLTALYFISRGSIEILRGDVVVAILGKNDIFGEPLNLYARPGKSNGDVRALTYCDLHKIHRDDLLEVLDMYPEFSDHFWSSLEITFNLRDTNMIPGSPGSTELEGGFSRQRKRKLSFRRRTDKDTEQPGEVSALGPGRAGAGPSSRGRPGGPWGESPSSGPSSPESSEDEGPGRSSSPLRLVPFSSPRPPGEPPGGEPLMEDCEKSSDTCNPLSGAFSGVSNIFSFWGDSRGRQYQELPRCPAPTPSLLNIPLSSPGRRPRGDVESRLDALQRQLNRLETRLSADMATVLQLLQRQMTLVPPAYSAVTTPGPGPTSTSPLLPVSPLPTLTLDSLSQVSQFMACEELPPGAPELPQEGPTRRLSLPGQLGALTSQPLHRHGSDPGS

Streptococcus = assay: GAS UMAA2166 growth inhibition – luminescence, BacTiterGlo, counter-screen for streptokinase expression inhibitor project, dose response (AID 1915); assay type: functional, organism-based;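 also: potency for reduction of bacterial viability or growth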
[14] = target: Heat shock protein HSP 90-alpha (Homo sapiens, UniProt P07900); assay type: functional, organism-based
[15] = NIH3T3 cell viability loss – ATP luminescence, mouse fibroblasts, counter-screen, dose response (AID 2010); assay type: functional, cell-based;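 also: cells exposed to compound for about 90 hours before reading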
[16] = HEK-293T viability loss after treatment – luminescence, T-cell screen hits, cytotoxicity control for TCR NF-kB inhibitor project, dose response (AID 489026); assay type: functional, cell-based;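 also: cells exposed to compound about 14 hours before the viability readout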
[17] = Trypanosoma cruzi growth suppression in host cells – NIH3T3 host cells, beta-gal luminescence, confirmation (AID 2044); assay type: functional, cell-based;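 also: intracellular parasites grown in NIH/3T3 mouse fibroblasts as host cells; luminescent beta-galactosidase reporter signal from transgenic T. cruzi replicating inside host cells; inhibitors lower the luminescence signal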
[18] = test system: Streptococcus sp. 'group A'; assay: Streptococcus pyogenes SK(-)GAS viability under kanamycin – luminescence, BacTiterGlo, confirmation, counter-screen for streptokinase expression inhibitor project, dose response (AID 1900); assay type: functional, organism-based
cells [19] = assay type: functional, cell-based
cells [20] = assay type: functional, cell-based; remark: listed apart in the source
[21] = target: T3, RNA-binding protein pos-1 (Caenorhabditis elegans, UniProt G5EF15); assay: disruptors of C. elegans POS-1 RNA interaction – biochemical, fluorescence polarization, dose response (AID 1964);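 also: purified POS-1 fused to maltose binding protein made in E. coli; potency of compounds blocking POS-1 binding to fluorescent RNA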
T3 sequence (G5EF15 whole entry): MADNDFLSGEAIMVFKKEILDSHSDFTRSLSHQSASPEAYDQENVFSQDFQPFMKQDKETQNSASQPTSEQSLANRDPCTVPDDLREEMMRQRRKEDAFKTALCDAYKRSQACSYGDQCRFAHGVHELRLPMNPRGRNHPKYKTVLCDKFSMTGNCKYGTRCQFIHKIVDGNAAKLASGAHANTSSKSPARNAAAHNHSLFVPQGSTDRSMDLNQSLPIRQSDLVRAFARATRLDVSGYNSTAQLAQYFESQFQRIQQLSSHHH

Interleukin-8 [22] = target: T4, Interleukin-8 (Homo sapiens, UniProt P10145); assay: Dose Response confirmation of uHTS small molecule hits for cystic fibrosis induced NFkb Inhibitors in a PAF-induced IL8 counterscreen.; assay type: functional; details: read-out: IC50_Mean
T4 sequence (P10145 whole entry): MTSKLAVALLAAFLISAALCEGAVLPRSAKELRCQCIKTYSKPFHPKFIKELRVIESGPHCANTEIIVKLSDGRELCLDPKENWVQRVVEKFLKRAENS

HeLa = assay: ATP-based viability loss in HeLa cells – cell-based, CellTiter-Glo luminescence, cherry-pick samples, cytotoxicity control for MITF activator project, dose response (AID 540259); assay type: functional; details: Homo sapiens
Cytochrome P450 2C19 = Cytochrome P450 2C19 (Homo sapiens, UniProt P33261); assay: Cytochrome panel assay with activity outcomes. Panel member name: p450-cyp2c19 Compounds with AC50 equal or less than 10 uM are considered active; assay type: functional; details: read-out: AC50
Sequence of Cytochrome P450 2C19 (P33261 whole entry): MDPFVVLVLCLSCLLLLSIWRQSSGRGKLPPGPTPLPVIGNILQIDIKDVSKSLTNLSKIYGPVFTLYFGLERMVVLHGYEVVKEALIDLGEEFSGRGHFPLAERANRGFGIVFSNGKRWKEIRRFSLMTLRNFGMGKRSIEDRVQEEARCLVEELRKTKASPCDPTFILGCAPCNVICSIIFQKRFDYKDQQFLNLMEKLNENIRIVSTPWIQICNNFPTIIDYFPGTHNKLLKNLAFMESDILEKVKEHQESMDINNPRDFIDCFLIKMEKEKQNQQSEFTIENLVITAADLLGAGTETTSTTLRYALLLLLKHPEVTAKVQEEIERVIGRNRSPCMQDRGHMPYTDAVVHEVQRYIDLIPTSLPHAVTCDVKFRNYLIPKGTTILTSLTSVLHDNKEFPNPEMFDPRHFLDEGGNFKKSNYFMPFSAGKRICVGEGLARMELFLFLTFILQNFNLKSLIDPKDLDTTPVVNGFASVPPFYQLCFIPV

Interleukin-8 [23] = target: T4, Interleukin-8; assay: Dose Response confirmation of uHTS small molecule hits for cystic fibrosis induced NFkb Inhibitors in a TNFa-induced IL8 counterscreen.; assay type: functional; details: read-out: IC50_Mean
H4 = assay: Luminescence Cell-Based Dose Response HTS to Identify Activators of 5'UTR Stem-Loop Driven Prion Protein mRNA Translation in H4 Neuroglioblastoma Cells. [Related pubchem assays: 1829 (Project Summary), 1814 (Primary HTS)]; assay type: functional; details: Homo sapiens
[24] = target: Beta-2 adrenergic receptor (Homo sapiens, UniProt P07550); assay: ADRB2 activation measured by internalization – cell-based, FAP fluorogen, flow cytometry, cherry pick 1, dose response (AID 588763); assay type: functional
Sequence of Beta-2 adrenergic receptor (P07550 whole entry): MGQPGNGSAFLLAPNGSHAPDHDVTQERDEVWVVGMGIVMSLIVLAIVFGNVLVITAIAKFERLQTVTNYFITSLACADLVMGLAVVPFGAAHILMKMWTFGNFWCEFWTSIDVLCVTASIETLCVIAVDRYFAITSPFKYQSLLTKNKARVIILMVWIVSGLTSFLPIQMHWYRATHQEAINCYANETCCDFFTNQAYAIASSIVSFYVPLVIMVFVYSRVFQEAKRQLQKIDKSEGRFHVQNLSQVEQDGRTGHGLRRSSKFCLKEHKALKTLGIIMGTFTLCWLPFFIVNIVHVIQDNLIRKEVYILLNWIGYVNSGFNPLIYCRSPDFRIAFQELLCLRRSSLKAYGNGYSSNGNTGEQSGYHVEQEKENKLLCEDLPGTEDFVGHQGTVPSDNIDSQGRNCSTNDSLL

[25] = Luminescence Cell-Based Dose Response HTS to Identify Activators of Luciferase Translation or Activity in H4 […] Cells. [Related pubchem assays: 1829 (Project Summary), 1814 (Primary HTS)]; assay type: functional

## NC1=NC(=O)/C(=C\c2ccc(-c3ccc(Cl)cc3)o2)S1
[1]
  AC50: 0.195 µM (active)

## CCC1CCCCN1S(=O)(=O)c1ccc(S(=O)(=O)N2CCN(S(=O)(=O)CC)CC2)cc1 (stereo unspecified)
HEK293 [2]
  IC50: > 9.91 µM (active)
HEK293 [3]
  EC50: > 55.9 µM (inactive)
Insulin-degrading enzyme [4]
  EC50: > 54.7 µM (inactive)
Insulin-degrading enzyme [5]
  EC50: > 54.7 µM (inactive)

## O=C(N1CCCCC1Cc1ccccc1)n1cc(-c2ccc(-c3ccccc3C(F)(F)F)cc2)nn1 (stereo unspecified)
[6]
  IC50: 0.058 µM (active)

## CCN(Cc1ccccc1)S(=O)(=O)c1ccc(C(=O)Nc2nnc(-c3ccccc3OC)o2)cc1
[7]
  IC50: 56.5 µM (active)
[8]
  IC50: 8.19 µM (active)
[9]
  EC50: 39.3 µM (active)
[10]
  EC50: 0.468 µM (active)
[11]
  EC50: > 180 µM (inactive)
[12]
  EC50: 19.9 µM (active)

## CCOC(=O)C1=C(C)NC(C)=C(C(=O)OC)C1c1cccc(Cl)c1Cl (stereo unspecified) [FELODIPINE]
[13]
  AC50: 20 µM (inconclusive)

## NC1(C(=O)O)CC1
[13]
  AC50: 31.6 µM (inconclusive)

## O=C(N/N=C\c1c(O)ccc2ccccc12)c1cncc(Br)c1
HEK293 [2]
  IC50: > 89.3 µM (inactive)
Streptococcus
  EC50: 3.59 µM (active)
[14]
  AC50: 4.06 µM (active)
[9]
  EC50: 8.52 µM (inconclusive)
[10]
  EC50: 0.342 µM (active)
[15]
  EC50: 7.07 µM (active)
[16]
  IC50: > 80 µM (inactive)
HEK293 [3]
  EC50: 12.4 µM (inactive)
[17]
  EC50: 0.792 µM (active)
[18]
  EC50: 1.4 µM (active)
Cells [19]
  EC50: 10.3 µM (active)
Cells [20]
  EC50: 86.8 µM (active)
Insulin-degrading enzyme [4]
  EC50: > 54.7 µM (inactive)
Insulin-degrading enzyme [5]
  EC50: > 54.7 µM (inactive)
[21]
  EC50: > 300 µM (not active)

## O=C(Nc1cccc2[nH]ncc12)c1ccc(F)cc1
Interleukin-8 [22]
  IC50: 13.8 µM (inactive)
HeLa
  AC50: 52.8 µM (active)
Cytochrome P450 2C19
  AC50: 14.1 µM (inconclusive)
Interleukin-8 [23]
  IC50: > 79 µM (inactive)

## COc1ccc(S(=O)(=O)N2CCCC(C(=O)Nc3ccc(NC(=O)c4ccccn4)cc3)C2)cc1 (stereo unspecified)
H4
  EC50: 5.33 µM (active)
[24]
  EC50: 0.0809 µM (active)
[25]
  EC50: > 120 µM (not active)
